Consider 3 compounds from BindingDB's records for doi:10.1021/jm031011g (Xenova, 2004).

The target of experiment [1] is Multidrug resistance-associated protein 1 (Homo sapiens) (UniProt P33527). Kind of experiment: Effective concentration to inhibit MRP1 in potentiation assay.
For experiment [2] the target is unchanged. The description is as above. The source holds these as a separate data set.

Multidrug resistance-associated protein 1 (Homo sapiens), sequence (P33527 whole entry, looked up): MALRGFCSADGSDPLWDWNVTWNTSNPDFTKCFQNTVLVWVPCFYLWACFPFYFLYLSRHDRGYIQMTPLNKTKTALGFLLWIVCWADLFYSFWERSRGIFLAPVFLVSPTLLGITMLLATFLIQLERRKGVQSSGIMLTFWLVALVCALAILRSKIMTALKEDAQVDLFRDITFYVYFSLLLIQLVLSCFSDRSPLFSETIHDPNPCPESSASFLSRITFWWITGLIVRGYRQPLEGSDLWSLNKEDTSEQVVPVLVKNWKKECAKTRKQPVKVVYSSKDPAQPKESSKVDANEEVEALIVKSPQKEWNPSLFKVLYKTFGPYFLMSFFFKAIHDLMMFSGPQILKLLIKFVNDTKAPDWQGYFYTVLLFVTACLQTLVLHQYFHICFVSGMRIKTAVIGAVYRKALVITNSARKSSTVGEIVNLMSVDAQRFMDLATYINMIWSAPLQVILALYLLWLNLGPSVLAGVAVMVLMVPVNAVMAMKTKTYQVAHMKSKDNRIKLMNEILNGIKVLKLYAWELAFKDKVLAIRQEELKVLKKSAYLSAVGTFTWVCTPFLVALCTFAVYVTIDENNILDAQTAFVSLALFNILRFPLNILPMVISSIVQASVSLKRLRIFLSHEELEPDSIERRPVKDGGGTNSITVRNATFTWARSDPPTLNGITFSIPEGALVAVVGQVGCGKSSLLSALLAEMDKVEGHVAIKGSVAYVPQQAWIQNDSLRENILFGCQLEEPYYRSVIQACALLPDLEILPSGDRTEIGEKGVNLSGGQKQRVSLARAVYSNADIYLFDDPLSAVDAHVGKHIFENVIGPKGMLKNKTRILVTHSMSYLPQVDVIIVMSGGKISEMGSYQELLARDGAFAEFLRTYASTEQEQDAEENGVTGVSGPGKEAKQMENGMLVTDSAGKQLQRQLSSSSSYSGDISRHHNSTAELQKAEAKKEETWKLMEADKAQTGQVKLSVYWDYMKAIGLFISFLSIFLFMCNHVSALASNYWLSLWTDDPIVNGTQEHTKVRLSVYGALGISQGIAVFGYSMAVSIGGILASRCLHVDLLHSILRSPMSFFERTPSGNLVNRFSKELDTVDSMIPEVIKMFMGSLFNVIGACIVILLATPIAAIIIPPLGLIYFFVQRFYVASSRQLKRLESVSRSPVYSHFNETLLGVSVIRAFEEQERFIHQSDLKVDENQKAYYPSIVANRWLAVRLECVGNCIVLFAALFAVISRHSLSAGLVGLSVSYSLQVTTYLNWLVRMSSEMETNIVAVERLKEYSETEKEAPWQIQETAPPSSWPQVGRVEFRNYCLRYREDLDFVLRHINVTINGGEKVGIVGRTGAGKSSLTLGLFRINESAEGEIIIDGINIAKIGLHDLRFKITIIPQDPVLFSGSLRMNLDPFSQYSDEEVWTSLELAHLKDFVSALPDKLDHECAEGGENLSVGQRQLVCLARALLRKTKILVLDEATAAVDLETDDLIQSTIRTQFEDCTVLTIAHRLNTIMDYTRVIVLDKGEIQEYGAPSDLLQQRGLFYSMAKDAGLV

As to `O=C(NCc1ccccn1)c1c2n(c3c(N4CCN(CCc5ccc(F)c(F)c5)CC4)ncnc13)CCCC2` [4-{4-[2-(3,4-Difluoro-phenyl)-ethyl]-piperazin-1-yl}-6,7,8,9-tetrahydro-pyrimido[4,5-b]indolizine-10-carboxylic acid (pyridin-2-ylmethyl)-amide], the EC50 in experiment [1] amounted to 97 nM.
Turning to `COc1cccc(CNC(=O)c2c3n(c4c(N5CCN(CCc6ccc(F)c(F)c6)CC5)ncnc24)CCCC3)c1OC` [4-{4-[2-(3,4-Difluoro-phenyl)-ethyl]-piperazin-1-yl}-6,7,8,9-tetrahydro-pyrimido[4,5-b]indolizine-10-carboxylic acid 2,3-dimethoxy-benzylamide], in experiment [2], the EC50 stood at 150 nM.
`NC(=O)c1c2n(c3c(N4CCN(CCc5ccc(F)c(F)c5)CC4)ncnc13)CCCC2` [4-{4-[2-(3,4-Difluoro-phenyl)-ethyl]-piperazin-1-yl}-6,7,8,9-tetrahydro-pyrimido[4,5-b]indolizine-10-carboxylic acid amide]: the EC50 in experiment [1] was determined as 117 nM.

Usually EC50 stands for the concentration at which the effect is half-maximal.
